Test system: Abutilon theophrasti
Assay: Weeding effect in post-emergence stage
Type: in vivo
Conditions: Dose 15 g/ha; level of fresh weight growth control rate
Summary of the method: (§1)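 Pot-grown greenhouse plants sprayed at 2–3 leaf stage, 2 weeks after sowing, with compound in acetone/Tween 80 plus methyl oleate emulsifiable concentrate (1.5 liter/ha) at 500–7.5 g/ha. Growth control rated 3 weeks after treatment; mean of three replicates.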

Row | Structure (SMILES) | Weeding effect in post-emergence stage, Abutilon theophrasti
1 | COC(=O)[C@@H](C)O/N=C/c1cc(-n2c(=O)cc(C(F)(F)F)n(C)c2=O)c(F)cc1C(F)(F)F [342(R)] | 5 (Level 5: growth control rate is above 85%)
2 | COC(=O)[C@@H](C)O/N=C/c1cc(-n2c(=O)cc(C(F)(F)F)n(C)c2=O)c(F)cc1C#N [344(R)] | 5 (Level 5: growth control rate is above 85%)

Same assay, conditions: Dose 30 g/ha; level of fresh weight growth control rate

Row | Structure (SMILES) | Weeding effect in post-emergence stage, Abutilon theophrasti
3 | CCOC(=O)[C@H](O/N=C/c1cc(-n2c(=O)cc(C(F)(F)F)n(C)c2=O)c(F)cc1Cl)C1CC1 [319(R)] | 5 (Level 5: growth control rate is above 85%)
4 | COC(=O)[C@@H](C)O/N=C/c1cc(-n2c(=O)cc(C(F)(F)F)n(C)c2=S)c(F)cc1Cl [347(R)] | 5 (Level 5: growth control rate is above 85%)

Same assay, conditions: Dose 60 g/ha; fresh weight control rate level

Row | Structure (SMILES) | Weeding effect in post-emergence stage, Abutilon theophrasti (level)
5 | COC(=O)[C@@H](C)O/N=C/c1cc(-n2c(=S)cc(C(F)(F)F)n(C)c2=S)c(F)cc1Cl [351(R)] | 5 (Level 5: growth control rate is above 85%)
6 | COC(=O)[C@@H](C)O/N=C/c1cc(-n2c(=S)cc(C(F)(F)F)n(C)c2=S)c(F)cc1Br [391(R)] | 5 (Level 5: growth control rate is above 85%)

Same assay, conditions: Dose 120 g/ha; level of fresh weight growth control rate

Row | Structure (SMILES) | Weeding effect in post-emergence stage, Abutilon theophrasti
7 | COC(=O)[C@H](OC)O/N=C/c1cc(-n2c(=O)cc(C(F)(F)F)n(C)c2=O)c(F)cc1Cl [321(R)] | 5 (Level 5: growth control rate is above 85%)
8 | CCOC(=O)[C@H](OC)O/N=C/c1cc(-n2c(=O)cc(C(F)(F)F)n(C)c2=O)c(F)cc1Cl [322(R)] | 5 (Level 5: growth control rate is above 85%)

Test system: Alopecurus japonicus
Assay: Weeding effect in post-emergence stage
Type: in vivo
Conditions: Dose 15 g/ha; level of fresh weight growth control rate
Summary of the method: as §1

Row | Structure (SMILES) | Weeding effect in post-emergence stage, Alopecurus japonicus
9 | COC(=O)[C@@H](C)O/N=C/c1cc(-n2c(=O)cc(C(F)(F)F)n(C)c2=O)c(F)cc1C(F)(F)F [342(R)] | 5 (Level 5: growth control rate is above 85%)
10 | COC(=O)[C@@H](C)O/N=C/c1cc(-n2c(=O)cc(C(F)(F)F)n(C)c2=O)c(F)cc1C#N [344(R)] | 5 (Level 5: growth control rate is above 85%)

Same assay, conditions: Dose 30 g/ha; level of fresh weight growth control rate

Row | Structure (SMILES) | Weeding effect in post-emergence stage, Alopecurus japonicus
11 | CCOC(=O)[C@H](O/N=C/c1cc(-n2c(=O)cc(C(F)(F)F)n(C)c2=O)c(F)cc1Cl)C1CC1 [319(R)] | 5 (Level 5: growth control rate is above 85%)
12 | COC(=O)[C@@H](C)O/N=C/c1cc(-n2c(=O)cc(C(F)(F)F)n(C)c2=S)c(F)cc1Cl [347(R)] | 5 (Level 5: growth control rate is above 85%)

Same assay, conditions: Dose 60 g/ha; fresh weight control rate level

Row | Structure (SMILES) | Weeding effect in post-emergence stage, Alopecurus japonicus (level)
13 | COC(=O)[C@@H](C)O/N=C/c1cc(-n2c(=S)cc(C(F)(F)F)n(C)c2=S)c(F)cc1Cl [351(R)] | 5 (Level 5: growth control rate is above 85%)
14 | COC(=O)[C@@H](C)O/N=C/c1cc(-n2c(=S)cc(C(F)(F)F)n(C)c2=S)c(F)cc1Br [391(R)] | 5 (Level 5: growth control rate is above 85%)

Same assay, conditions: Dose 120 g/ha; level of fresh weight growth control rate

Row | Structure (SMILES) | Weeding effect in post-emergence stage, Alopecurus japonicus
15 | COC(=O)[C@H](OC)O/N=C/c1cc(-n2c(=O)cc(C(F)(F)F)n(C)c2=O)c(F)cc1Cl [321(R)] | 5 (Level 5: growth control rate is above 85%)
16 | CCOC(=O)[C@H](OC)O/N=C/c1cc(-n2c(=O)cc(C(F)(F)F)n(C)c2=O)c(F)cc1Cl [322(R)] | 5 (Level 5: growth control rate is above 85%)

Test system: Digitaria sanguinalis
Assay: Weeding effect in post-emergence stage
Type: in vivo
Conditions: Dose 15 g/ha; level of fresh weight growth control rate
Summary of the method: as §1

Row | Structure (SMILES) | Weeding effect in post-emergence stage, Digitaria sanguinalis
17 | COC(=O)[C@@H](C)O/N=C/c1cc(-n2c(=O)cc(C(F)(F)F)n(C)c2=O)c(F)cc1C(F)(F)F [342(R)] | 5 (Level 5: growth control rate is above 85%)
18 | COC(=O)[C@@H](C)O/N=C/c1cc(-n2c(=O)cc(C(F)(F)F)n(C)c2=O)c(F)cc1C#N [344(R)] | 5 (Level 5: growth control rate is above 85%)

Same assay, conditions: Dose 30 g/ha; level of fresh weight growth control rate

Row | Structure (SMILES) | Weeding effect in post-emergence stage, Digitaria sanguinalis
19 | CCOC(=O)[C@H](O/N=C/c1cc(-n2c(=O)cc(C(F)(F)F)n(C)c2=O)c(F)cc1Cl)C1CC1 [319(R)] | 5 (Level 5: growth control rate is above 85%)
20 | COC(=O)[C@@H](C)O/N=C/c1cc(-n2c(=O)cc(C(F)(F)F)n(C)c2=S)c(F)cc1Cl [347(R)] | 5 (Level 5: growth control rate is above 85%)

Same assay, conditions: Dose 60 g/ha; fresh weight control rate level

Row | Structure (SMILES) | Weeding effect in post-emergence stage, Digitaria sanguinalis (level)
21 | COC(=O)[C@@H](C)O/N=C/c1cc(-n2c(=S)cc(C(F)(F)F)n(C)c2=S)c(F)cc1Cl [351(R)] | 5 (Level 5: growth control rate is above 85%)
22 | COC(=O)[C@@H](C)O/N=C/c1cc(-n2c(=S)cc(C(F)(F)F)n(C)c2=S)c(F)cc1Br [391(R)] | 5 (Level 5: growth control rate is above 85%)

Same assay, conditions: Dose 120 g/ha; level of fresh weight growth control rate

Row | Structure (SMILES) | Weeding effect in post-emergence stage, Digitaria sanguinalis
23 | COC(=O)[C@H](OC)O/N=C/c1cc(-n2c(=O)cc(C(F)(F)F)n(C)c2=O)c(F)cc1Cl [321(R)] | 5 (Level 5: growth control rate is above 85%)
24 | CCOC(=O)[C@H](OC)O/N=C/c1cc(-n2c(=O)cc(C(F)(F)F)n(C)c2=O)c(F)cc1Cl [322(R)] | 5 (Level 5: growth control rate is above 85%)

Test system: Eleusine indica
Assay: Weeding effect in post-emergence stage
Type: in vivo
Conditions: Dose 15 g/ha; level of fresh weight growth control rate
Summary of the method: as §1

Row | Structure (SMILES) | Weeding effect in post-emergence stage, Eleusine indica
25 | COC(=O)[C@@H](C)O/N=C/c1cc(-n2c(=O)cc(C(F)(F)F)n(C)c2=O)c(F)cc1C(F)(F)F [342(R)] | 5 (Level 5: growth control rate is above 85%)
26 | COC(=O)[C@@H](C)O/N=C/c1cc(-n2c(=O)cc(C(F)(F)F)n(C)c2=O)c(F)cc1C#N [344(R)] | 5 (Level 5: growth control rate is above 85%)

Same assay, conditions: Dose 30 g/ha; level of fresh weight growth control rate

Row | Structure (SMILES) | Weeding effect in post-emergence stage, Eleusine indica
27 | CCOC(=O)[C@H](O/N=C/c1cc(-n2c(=O)cc(C(F)(F)F)n(C)c2=O)c(F)cc1Cl)C1CC1 [319(R)] | 5 (Level 5: growth control rate is above 85%)
28 | COC(=O)[C@@H](C)O/N=C/c1cc(-n2c(=O)cc(C(F)(F)F)n(C)c2=S)c(F)cc1Cl [347(R)] | 5 (Level 5: growth control rate is above 85%)

Same assay, conditions: Dose 60 g/ha; fresh weight control rate level

Row | Structure (SMILES) | Weeding effect in post-emergence stage, Eleusine indica (level)
29 | COC(=O)[C@@H](C)O/N=C/c1cc(-n2c(=S)cc(C(F)(F)F)n(C)c2=S)c(F)cc1Cl [351(R)] | 5 (Level 5: growth control rate is above 85%)
30 | COC(=O)[C@@H](C)O/N=C/c1cc(-n2c(=S)cc(C(F)(F)F)n(C)c2=S)c(F)cc1Br [391(R)] | 5 (Level 5: growth control rate is above 85%)

Same assay, conditions: Dose 120 g/ha; level of fresh weight growth control rate

Row | Structure (SMILES) | Weeding effect in post-emergence stage, Eleusine indica
31 | COC(=O)[C@H](OC)O/N=C/c1cc(-n2c(=O)cc(C(F)(F)F)n(C)c2=O)c(F)cc1Cl [321(R)] | 5 (Level 5: growth control rate is above 85%)
32 | CCOC(=O)[C@H](OC)O/N=C/c1cc(-n2c(=O)cc(C(F)(F)F)n(C)c2=O)c(F)cc1Cl [322(R)] | 5 (Level 5: growth control rate is above 85%)

Test system: Setaria viridis
Assay: Weeding effect in post-emergence stage
Type: in vivo
Conditions: Dose 15 g/ha; level of fresh weight growth control rate
Summary of the method: as §1

Row | Structure (SMILES) | Weeding effect in post-emergence stage, Setaria viridis
33 | COC(=O)[C@@H](C)O/N=C/c1cc(-n2c(=O)cc(C(F)(F)F)n(C)c2=O)c(F)cc1C(F)(F)F [342(R)] | 5 (Level 5: growth control rate is above 85%)
34 | COC(=O)[C@@H](C)O/N=C/c1cc(-n2c(=O)cc(C(F)(F)F)n(C)c2=O)c(F)cc1C#N [344(R)] | 5 (Level 5: growth control rate is above 85%)

Same assay, conditions: Dose 30 g/ha; level of fresh weight growth control rate

Row | Structure (SMILES) | Weeding effect in post-emergence stage, Setaria viridis
35 | CCOC(=O)[C@H](O/N=C/c1cc(-n2c(=O)cc(C(F)(F)F)n(C)c2=O)c(F)cc1Cl)C1CC1 [319(R)] | 5 (Level 5: growth control rate is above 85%)
36 | COC(=O)[C@@H](C)O/N=C/c1cc(-n2c(=O)cc(C(F)(F)F)n(C)c2=S)c(F)cc1Cl [347(R)] | 5 (Level 5: growth control rate is above 85%)

Same assay, conditions: Dose 60 g/ha; fresh weight control rate level

Row | Structure (SMILES) | Weeding effect in post-emergence stage, Setaria viridis (level)
37 | COC(=O)[C@@H](C)O/N=C/c1cc(-n2c(=S)cc(C(F)(F)F)n(C)c2=S)c(F)cc1Cl [351(R)] | 5 (Level 5: growth control rate is above 85%)
38 | COC(=O)[C@@H](C)O/N=C/c1cc(-n2c(=S)cc(C(F)(F)F)n(C)c2=S)c(F)cc1Br [391(R)] | 5 (Level 5: growth control rate is above 85%)

Same assay, conditions: Dose 120 g/ha; level of fresh weight growth control rate

Row | Structure (SMILES) | Weeding effect in post-emergence stage, Setaria viridis
39 | COC(=O)[C@H](OC)O/N=C/c1cc(-n2c(=O)cc(C(F)(F)F)n(C)c2=O)c(F)cc1Cl [321(R)] | 5 (Level 5: growth control rate is above 85%)
40 | CCOC(=O)[C@H](OC)O/N=C/c1cc(-n2c(=O)cc(C(F)(F)F)n(C)c2=O)c(F)cc1Cl [322(R)] | 5 (Level 5: growth control rate is above 85%)

Test system: Echinochloa crusgalli
Assay: Weeding effect in post-emergence stage
Type: in vivo
Conditions: Dose 15 g/ha; level of fresh weight growth control rate
Summary of the method: as §1

Row | Structure (SMILES) | Weeding effect in post-emergence stage, Echinochloa crusgalli
41 | COC(=O)[C@@H](C)O/N=C/c1cc(-n2c(=O)cc(C(F)(F)F)n(C)c2=O)c(F)cc1C(F)(F)F [342(R)] | 5 (Level 5: growth control rate is above 85%)
42 | COC(=O)[C@@H](C)O/N=C/c1cc(-n2c(=O)cc(C(F)(F)F)n(C)c2=O)c(F)cc1C#N [344(R)] | 5 (Level 5: growth control rate is above 85%)

Same assay, conditions: Dose 30 g/ha; level of fresh weight growth control rate

Row | Structure (SMILES) | Weeding effect in post-emergence stage, Echinochloa crusgalli
43 | CCOC(=O)[C@H](O/N=C/c1cc(-n2c(=O)cc(C(F)(F)F)n(C)c2=O)c(F)cc1Cl)C1CC1 [319(R)] | 5 (Level 5: growth control rate is above 85%)
44 | COC(=O)[C@@H](C)O/N=C/c1cc(-n2c(=O)cc(C(F)(F)F)n(C)c2=S)c(F)cc1Cl [347(R)] | 5 (Level 5: growth control rate is above 85%)

Same assay, conditions: Dose 60 g/ha; fresh weight control rate level

Row | Structure (SMILES) | Weeding effect in post-emergence stage, Echinochloa crusgalli (level)
45 | COC(=O)[C@@H](C)O/N=C/c1cc(-n2c(=S)cc(C(F)(F)F)n(C)c2=S)c(F)cc1Cl [351(R)] | 5 (Level 5: growth control rate is above 85%)
46 | COC(=O)[C@@H](C)O/N=C/c1cc(-n2c(=S)cc(C(F)(F)F)n(C)c2=S)c(F)cc1Br [391(R)] | 5 (Level 5: growth control rate is above 85%)

Same assay, conditions: Dose 120 g/ha; level of fresh weight growth control rate

Row | Structure (SMILES) | Weeding effect in post-emergence stage, Echinochloa crusgalli
47 | COC(=O)[C@H](OC)O/N=C/c1cc(-n2c(=O)cc(C(F)(F)F)n(C)c2=O)c(F)cc1Cl [321(R)] | 5 (Level 5: growth control rate is above 85%)
48 | CCOC(=O)[C@H](OC)O/N=C/c1cc(-n2c(=O)cc(C(F)(F)F)n(C)c2=O)c(F)cc1Cl [322(R)] | 5 (Level 5: growth control rate is above 85%)

— patent US20230111310A1, “CARBOXYLIC ACID DERIVATIVE-SUBSTITUTED IMINO ARYL COMPOUND, PREPARATION METHOD THEREFOR, HERBICIDAL COMPOSITION AND USE THEREOF” (Qingdao Kingagroot Chemical Compound Co., Ltd., priority 2020, published 2023)
